In patent publication US8895574B2, “Benzyloxypyrimidine derivative, agricultural/ horticultural insecticide comprising derivative and method for using same” (Nihon Nohyaku Co., Ltd., priority 2010, dated 2014):

System: cattle tick (Haemaphysalis longicornis)
Assay: Acaricidal effect on cattle tick, absorbent cotton in glass bottle
Type: in vivo
Conditions: 96 h, 100 ppm drug solution, 2 ml, 4 days after inoculation, read-out: acaricidal effect against cattle tick (corrected mortality, judged by criterion)
Experimental: Acaricidal Effect on Cattle Tick (Haemaphysalis longicornis)
An absorbent cotton was placed on the basement of a glass bottle (diameter 3 cm×height 4.5 cm). The pyrimidine derivative of the present invention represented by the formula (I) or a salt thereof was dispersed in water to give a diluted drug solution (100 ppm). The drug solution (2 ml) was added dropwise. Cattle ticks were inoculated by 5 each, and the bottle was capped with a mesh. After 4 days from the inoculation, the dead ticks and live ticks were counted, and the corrected mortality was calculated by the following formula. corrected mortality (%)=(survival rate in untreated group−survival rate in treated group)/(survival rate in untreated group)×100 Diagnostic criteria . . . as defined in Experimental Example 1

With COc1cncnc1OCc1ccc(C(C)(C)C)cc1 [1-1, 4-(4-t-butylbenzyloxy)-5-methoxypyrimidine] the mortality at 100 ppm was 50 to 79%.
